Laboratory results from patent US10479780B2, “Aminopyrazole derivatives” (Chugai Seiyaku Kabushiki Kaisha, priority 2015, dated 2019).
pIC50: −log10 of the molar value.

Experiments:
Assay type in all cases: biochemical
[1] = target: T1, human Src enzyme (Homo sapiens, UniProt P12931); assay: Src enzyme inhibitory activity (time-resolved fluorometry, biotinylated peptide phosphorylation); conditions: biotinylated peptide phosphorylation, read-out: SRC_IC50
T1 construct: purchased Carna Biosciences, Inc. 08-173
T1 sequence (P12931 whole entry): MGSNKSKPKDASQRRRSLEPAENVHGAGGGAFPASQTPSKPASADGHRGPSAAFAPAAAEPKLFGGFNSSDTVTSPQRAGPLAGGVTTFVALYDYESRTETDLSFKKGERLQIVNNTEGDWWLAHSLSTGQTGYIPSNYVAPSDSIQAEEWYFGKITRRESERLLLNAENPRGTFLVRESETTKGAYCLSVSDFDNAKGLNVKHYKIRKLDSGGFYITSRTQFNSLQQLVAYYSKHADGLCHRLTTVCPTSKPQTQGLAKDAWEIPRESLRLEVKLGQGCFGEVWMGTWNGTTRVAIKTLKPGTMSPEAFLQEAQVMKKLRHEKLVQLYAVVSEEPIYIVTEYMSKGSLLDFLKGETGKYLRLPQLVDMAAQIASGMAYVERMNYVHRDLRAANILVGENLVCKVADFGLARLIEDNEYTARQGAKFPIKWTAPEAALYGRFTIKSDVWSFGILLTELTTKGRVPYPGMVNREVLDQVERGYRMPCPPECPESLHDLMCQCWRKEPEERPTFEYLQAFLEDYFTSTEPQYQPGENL
In short: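 Compounds were tested for blocking tyrosine phosphorylation of a biotinylated peptide substrate by recombinant human Src. Phosphorylated product was quantified by time-resolved fluorometry using europium cryptate and XL665 conjugates, and IC50 was calculated against the compound-free control.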

[2] = target: T2, human Yes1 enzyme (Homo sapiens, UniProt P07947); assay: Yes1 enzyme inhibitory activity (time-resolved fluorometry, biotinylated peptide phosphorylation); conditions: biotinylated peptide phosphorylation, read-out: YES_IC50
T2 construct: made in house
T2 sequence (P07947 whole entry): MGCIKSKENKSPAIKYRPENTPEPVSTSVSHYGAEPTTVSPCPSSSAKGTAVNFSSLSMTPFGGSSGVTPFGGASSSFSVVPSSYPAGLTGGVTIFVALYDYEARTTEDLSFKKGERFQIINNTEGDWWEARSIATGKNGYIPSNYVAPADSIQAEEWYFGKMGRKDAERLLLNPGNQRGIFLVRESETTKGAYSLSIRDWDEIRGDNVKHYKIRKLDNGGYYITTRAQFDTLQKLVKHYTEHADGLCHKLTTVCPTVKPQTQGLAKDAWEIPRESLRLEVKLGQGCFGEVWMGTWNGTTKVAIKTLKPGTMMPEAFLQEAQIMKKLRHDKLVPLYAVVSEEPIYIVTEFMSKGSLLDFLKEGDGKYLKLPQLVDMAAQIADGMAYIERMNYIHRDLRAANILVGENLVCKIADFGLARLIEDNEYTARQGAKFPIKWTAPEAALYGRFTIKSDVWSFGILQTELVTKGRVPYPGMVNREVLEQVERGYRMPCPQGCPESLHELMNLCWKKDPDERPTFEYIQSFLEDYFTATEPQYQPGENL
In short: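 Inhibition was expressed against a compound-free control to give IC50, using TR-FRET read-out (Eu-cryptate anti-pTyr antibody, streptavidin-XL665).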

[3] = target: T3, human Lck enzyme (Homo sapiens, UniProt P06239); assay: Lck enzyme inhibitory activity (time-resolved fluorometry, biotinylated peptide phosphorylation); conditions: biotinylated peptide phosphorylation, read-out: LCK_IC50
T3 construct: purchased Carna Biosciences, Inc. 08-170
T3 sequence (P06239 whole entry): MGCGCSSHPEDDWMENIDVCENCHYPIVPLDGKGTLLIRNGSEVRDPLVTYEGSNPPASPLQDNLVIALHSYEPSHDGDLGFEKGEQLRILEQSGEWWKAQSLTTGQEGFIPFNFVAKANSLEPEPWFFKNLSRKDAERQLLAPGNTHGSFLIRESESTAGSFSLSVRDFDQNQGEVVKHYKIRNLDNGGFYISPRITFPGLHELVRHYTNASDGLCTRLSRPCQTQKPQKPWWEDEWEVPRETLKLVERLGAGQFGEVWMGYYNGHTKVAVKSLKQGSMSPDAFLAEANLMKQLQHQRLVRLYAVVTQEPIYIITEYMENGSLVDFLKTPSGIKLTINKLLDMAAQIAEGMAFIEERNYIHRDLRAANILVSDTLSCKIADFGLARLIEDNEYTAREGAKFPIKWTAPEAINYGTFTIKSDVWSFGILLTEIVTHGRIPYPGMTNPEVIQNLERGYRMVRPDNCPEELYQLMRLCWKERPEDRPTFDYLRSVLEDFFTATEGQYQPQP
In short: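 Readout pairs a europium cryptate-labelled anti-phosphotyrosine antibody with XL665-streptavidin, measured by time-resolved fluorescence. IC50 derived from percent inhibition against untreated controls.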

**Q.** How did the pIC50 [1] turn out when `Cc1cc(-n2ncc(C(=O)c3cc4cc(C)c(N5C(=O)NC6(CC6)C5=O)cc4[nH]3)c2N)ccc1Oc1ccccc1F` [Example 5-1-473, 6-[2-[5-amino-1-[4-(2-fluorophenoxy)-3-methylphenyl]pyrazole-4-carbonyl]-5-methyl-1H-indol-6-yl]-4,6-diazaspiro[2.4]heptane-5,7-dione] was run?
**A.** Its pIC50 is 5.46.

**Q.** And the pIC50 [2]?
**A.** Its pIC50 is 7.77.

**Q.** What about the pIC50 [3] of the same compound?
**A.** Its pIC50 is 6.62.

**Q.** `Cc1cc(-n2ncc(C(=O)c3cc4cc(C)c(N5C(=O)NC6(COC6)C5=O)cc4[nH]3)c2N)ccc1Oc1ccccc1F` [Example 5-1-475, 7-[2-[5-amino-1-[4-(2-fluorophenoxy)-3-methylphenyl]pyrazole-4-carbonyl]-5-methyl-1H-indol-6-yl]-2-oxa-5,7-diazaspiro[3.4] octane-6,8-dione] was tested. Which pIC50 [1] did it give?
**A.** Its pIC50 is 5.85.

**Q.** What about the pIC50 [2] of the same compound?
**A.** Its pIC50 is 8.09.

**Q.** What about the pIC50 [3] of the same compound?
**A.** Its pIC50 is 7.15.

**Q.** Which results are given for `Cc1cc2cc(C(=O)c3cnn(-c4ccc(Oc5ccccc5F)cc4C)c3N)[nH]c2cc1N1C(=O)N[C@@H](C(C)C)C1=O` [Example 5-1-476, (5S)-3-[2-[5-amino-1-[4-(2-fluorophenoxy)-2-methylphenyl]pyrazole-4-carbonyl]-5-methyl-1H-indol-6-yl]-5-propan-2-ylimidazolidine-2,4-dione]?
**A.** pIC50 [1]: 7.01; pIC50 [2]: 8.54; pIC50 [3]: 7.92

**Q.** Which results are given for `Cc1cc2cc(C(=O)c3cnn(-c4cnc(Oc5ccccc5F)cc4C)c3N)[nH]c2cc1NS(=O)(=O)c1ccccn1` [Example 5-1-477, N-[2-[5-amino-1-[6-(2-fluorophenoxy)-4-methylpyridin-3-yl]pyrazole-4-carbonyl]-5-methyl-1H-indol-6-yl]pyridine-2-sulfonamide]?
**A.** pIC50 [1]: 6.60; pIC50 [2]: 8.28; pIC50 [3]: 7.32

**Q.** With `Cc1cc2cc(C(=O)c3cnn(-c4cnc(Oc5ccccc5F)cc4C)c3N)[nH]c2cc1NS(=O)(=O)c1cc(C#N)ccn1` [Example 5-1-478, N-[2-[5-amino-1-[6-(2-fluorophenoxy)-4-methylpyridin-3-yl]pyrazole-4-carbonyl]-5-methyl-1H-indol-6-yl]-4-cyanopyridine-2-sulfonainide] as the compound, how does the pIC50 [1] read?
**A.** Its pIC50 is 6.55.

**Q.** What about the pIC50 [2] of the same compound?
**A.** The pIC50 was 8.32.

**Q.** What about the pIC50 [3] of the same compound?
**A.** The pIC50 was 7.11.

**Q.** How did the pIC50 [1] turn out when `Cc1cc2cc(C(=O)c3cnn(-c4cnc(Oc5ccccc5F)cc4C)c3N)[nH]c2cc1NS(=O)(=O)c1cccc(C#N)n1` [Example 5-1-479, N-[2-[5-amino-1-[6-(2-fluorophenoxy)-4-methylpyridin-3-yl]pyrazole-4-carbonyl]-5-methyl-1H-indol-6-yl]-6-cyanopyridine-2-sulfonamide] was run?
**A.** Its pIC50 is 6.11.

**Q.** And the pIC50 [2]?
**A.** Its pIC50 is 8.48.

**Q.** And the pIC50 [3]?
**A.** Its pIC50 is 6.77.

**Q.** How did the pIC50 [1] turn out when `Cc1cc2cc(C(=O)c3cnn(-c4cnc(Oc5ccccc5F)cc4C)c3N)[nH]c2cc1NS(=O)(=O)c1cncc(C#N)c1` [Example 5-1-480, N-[2-[5-amino-1-[6-(2-fluorophenoxy)-4-methylpyridin-3-yl]pyrazole-4-carbonyl]-5-methyl-1H-indol-6-yl]-5-cyanopyridine-3-sulfonamide] was run?
**A.** The pIC50 was 6.40.

**Q.** What about the pIC50 [2] of the same compound?
**A.** Its pIC50 is 8.19.

**Q.** And the pIC50 [3]?
**A.** The pIC50 was 7.00.

**Q.** With `Cc1cc(C#N)cc(S(=O)(=O)Nc2cc3[nH]c(C(=O)c4cnn(-c5cnc(Oc6ccccc6F)cc5C)c4N)cc3cc2C)n1` [Example 5-1-481, N-[2-[5-amino-1-[6-(2-fluorophenoxy)-4-methylpyridin-3-yl]pyrazole-4-carbonyl]-5-methyl-1H-indol-6-yl]-4-cyano-6-methylpyridine-2-sulfonamide] as the compound, how does the pIC50 [1] read?
**A.** Its pIC50 is 6.35.

**Q.** What about the pIC50 [2] of the same compound?
**A.** Its pIC50 is 8.27.

**Q.** What about the pIC50 [3] of the same compound?
**A.** Its pIC50 is 6.96.

**Q.** `COc1ccnc(S(=O)(=O)Nc2cc3[nH]c(C(=O)c4cnn(-c5cnc(Oc6ccccc6F)cc5C)c4N)cc3cc2C)c1` [Example 5-1-482, N-[2-[5-amino-1-[6-(2-fluorophenoxy)-4-methylpyridin-3-yl]pyrazole-4-carbonyl]-5-methyl-1H-indol-6-yl]-4-methoxypyridine-2-sulfonamide] was tested. Which pIC50 [1] did it give?
**A.** The pIC50 was 6.32.

**Q.** And the pIC50 [2]?
**A.** The pIC50 was 8.20.

**Q.** And the pIC50 [3]?
**A.** Its pIC50 is 6.85.

**Q.** With `COc1cccc(S(=O)(=O)Nc2cc3[nH]c(C(=O)c4cnn(-c5cnc(Oc6ccccc6F)cc5C)c4N)cc3cc2C)n1` [Example 5-1-483, N-[2-[5-amino-1-[6-(2-fluorophenoxy)-4-methylpyridin-3-yl]pyrazole-4-carbonyl]-5-methyl-1H-indol-6-yl]-6-methoxypyridine-2-sulfonamide] as the compound, how does the pIC50 [1] read?
**A.** Its pIC50 is 6.15.

**Q.** What about the pIC50 [2] of the same compound?
**A.** Its pIC50 is 8.17.

**Q.** What about the pIC50 [3] of the same compound?
**A.** The pIC50 was 6.60.

**Q.** `COc1cncc(S(=O)(=O)Nc2cc3[nH]c(C(=O)c4cnn(-c5cnc(Oc6ccccc6F)cc5C)c4N)cc3cc2C)c1` [Example 5-1-484, N-[2-[5-amino-1-[6-(2-fluorophenoxy)-4-methylpyridin-3-yl]pyrazole-4-carbonyl]-5-methyl-1H-indol-6-yl]-5-methoxypyridine-3-sulfonamide] was tested. Which pIC50 [1] did it give?
**A.** Its pIC50 is 6.24.

**Q.** What about the pIC50 [2] of the same compound?
**A.** The pIC50 was 8.16.

**Q.** What about the pIC50 [3] of the same compound?
**A.** Its pIC50 is 6.85.

**Q.** How did the pIC50 [1] turn out when `Cc1cc2cc(C(=O)c3cnn(-c4cnc(Oc5ccccc5F)cc4C)c3N)[nH]c2cc1NS(=O)(=O)c1cc(C(F)(F)F)ccn1` [Example 5-1-485, N-[2-[5-amino-1-[6-(2-fluorophenoxy)-4-methylpyridin-3-yl]pyrazole-4-carbonyl]-5-methyl-1H-indol-6-yl]-4-(trifluoromethyl) pyridine-2-sulfonamide] was run?
**A.** The pIC50 was 6.28.

**Q.** What about the pIC50 [2] of the same compound?
**A.** Its pIC50 is 8.17.

**Q.** And the pIC50 [3]?
**A.** The pIC50 was 6.96.

**Q.** How did the pIC50 [1] turn out when `Cc1cc2cc(C(=O)c3cnn(-c4cnc(Oc5ccccc5F)cc4C)c3N)[nH]c2cc1NS(=O)(=O)c1cccc(C(F)(F)F)n1` [Example 5-1-486, N-[2-[5-amino-1-[6-(2-fluorophenoxy)-4-methylpyridin-3-yl]pyrazole-4-carbonyl]-5-methyl-1H-indol-6-yl]-6-(trifluoromethyl) pyridine-2-sulfonamide] was run?
**A.** The pIC50 was 6.21.

**Q.** What about the pIC50 [2] of the same compound?
**A.** Its pIC50 is 8.14.

**Q.** What about the pIC50 [3] of the same compound?
**A.** The pIC50 was 6.80.

**Q.** With `Cc1cc2cc(C(=O)c3cnn(-c4cnc(Oc5ccccc5F)cc4C)c3N)[nH]c2cc1NS(=O)(=O)c1cncc(C(F)(F)F)c1` [Example 5-1-487, N-[2-[5-amino-1-[6-(2-fluorophenoxy)-4-methylpyridin-3-yl]pyrazole-4-carbonyl]-5-methyl-1H-indol-6-yl]-5-(trifluoromethyl) pyridine-3-sulfonamide] as the compound, how does the pIC50 [1] read?
**A.** Its pIC50 is 6.29.

**Q.** What about the pIC50 [2] of the same compound?
**A.** Its pIC50 is 7.96.

**Q.** What about the pIC50 [3] of the same compound?
**A.** Its pIC50 is 6.96.

**Q.** Which results are given for `Cc1cncc(S(=O)(=O)Nc2cc3[nH]c(C(=O)c4cnn(-c5cnc(Oc6ccccc6F)cc5C)c4N)cc3cc2C)c1` [Example 5-1-488, N-[2-[5-amino-1-[6-(2-fluorophenoxy)-4-methylpyridin-3-yl]pyrazole-4-carbonyl]-5-methyl-1H-indol-6-yl]-5-methylpyridine-3-sulfonamide]?
**A.** pIC50 [1]: 6.28; pIC50 [2]: 8.38; pIC50 [3]: 6.92

**Q.** With `Cc1cc(Oc2ccccc2F)ccc1-n1ncc(C(=O)c2cc3cc(F)c(NS(=O)(=O)c4cccnc4)cc3[nH]2)c1N` [Example 5-1-489, N-[2-[5-amino-1-[4-(2-fluorophenoxy)-2-methylphenyl]pyrazole-4-carbonyl]-5-fluoro-1H-indol-6-yl]pyridine-3-sulfonamide] as the compound, how does the pIC50 [1] read?
**A.** Its pIC50 is 6.72.

**Q.** And the pIC50 [2]?
**A.** The pIC50 was 8.72.

**Q.** What about the pIC50 [3] of the same compound?
**A.** Its pIC50 is 7.31.

**Q.** `Cc1cc(Oc2ccccc2F)ccc1-n1ncc(C(=O)c2cc3cc(F)c(NS(=O)(=O)c4cccc(C#N)c4)cc3[nH]2)c1N` [Example 5-1-490, N-[2-[5-amino-1-[4-(2-fluorophenoxy)-2-methylphenyl]pyrazole-4-carbonyl]-5-fluoro-1H-indol-6-yl]-3-cyanobenzenesulfonamide] was tested. Which pIC50 [1] did it give?
**A.** Its pIC50 is 6.37.

**Q.** What about the pIC50 [2] of the same compound?
**A.** The pIC50 was 8.43.

**Q.** What about the pIC50 [3] of the same compound?
**A.** Its pIC50 is 6.96.

**Q.** `Cc1cc(Oc2c(F)cccc2F)ncc1-n1ncc(C(=O)c2cc3cc(F)c(NS(=O)(=O)c4cccnc4)cc3[nH]2)c1N` [Example 5-1-491, N-[2-[5-amino-1-[6-(2,6-difluorophenoxy)-4-methylpyridin-3-yl]pyrazole-4-carbonyl]-5-fluoro-1H-indol-6-yl]pyridine-3-sulfonamide] was tested. Which pIC50 [1] did it give?
**A.** Its pIC50 is 6.40.

**Q.** And the pIC50 [2]?
**A.** Its pIC50 is 8.31.

**Q.** What about the pIC50 [3] of the same compound?
**A.** The pIC50 was 7.00.

**Q.** With `Cc1cc(Oc2c(F)cccc2F)ncc1-n1ncc(C(=O)c2cc3cc(F)c(NS(=O)(=O)c4cccc(C#N)c4)cc3[nH]2)c1N` [Example 5-1-492, N-[2-[5-amino-1-[6-(2,6-difluorophenoxy)-4-methylpyridin-3-yl]pyrazole-4-carbonyl]-5-fluoro-1H-indol-6-yl]-3-cyanobenzenesulfonamide] as the compound, how does the pIC50 [1] read?
**A.** The pIC50 was 6.12.

**Q.** And the pIC50 [2]?
**A.** The pIC50 was 8.10.

**Q.** What about the pIC50 [3] of the same compound?
**A.** Its pIC50 is 6.82.

**Q.** `Cc1cc2cc(C(=O)c3cnn(-c4cnc(Oc5ccccc5F)cc4C)c3N)[nH]c2cc1NS(=O)(=O)c1cncc(F)c1` [Example 5-1-494, N-[2-[5-amino-1-[6-(2-fluorophenoxy)-4-methylpyridin-3-yl]pyrazole-4-carbonyl]-5-methyl-1H-indol-6-yl]-5-fluoropyridine-3-sulfonamide] was tested. Which pIC50 [1] did it give?
**A.** Its pIC50 is 6.37.

**Q.** What about the pIC50 [2] of the same compound?
**A.** Its pIC50 is 8.52.

**Q.** And the pIC50 [3]?
**A.** Its pIC50 is 6.64.

**Q.** With `Cc1cc2cc(C(=O)c3cnn(-c4cnc(Oc5ccccc5F)cc4C)c3N)[nH]c2cc1NS(=O)(=O)c1cncc(Cl)c1` [Example 5-1-495, N-[2-[5-amino-1-[6-(2-fluorophenoxy)-4-methylpyridin-3-yl]pyrazole-4-carbonyl]-5-methyl-1H-indol-6-yl]-5-chloropyridine-3-sulfonamide] as the compound, how does the pIC50 [1] read?
**A.** Its pIC50 is 6.26.

**Q.** And the pIC50 [2]?
**A.** Its pIC50 is 8.41.

**Q.** What about the pIC50 [3] of the same compound?
**A.** Its pIC50 is 6.44.

**Q.** Which results are given for `COc1cc(F)cc(S(=O)(=O)Nc2cc3[nH]c(C(=O)c4cnn(-c5cnc(Oc6ccccc6F)cc5C)c4N)cc3cc2C)c1` [Example 5-1-496, N-[2-[5-amino-1-[6-(2-fluorophenoxy)-4-methylpyridin-3-yl]pyrazole-4-carbonyl]-5-methyl-1H-indol-6-yl]-3-fluoro-5-methoxybenzenesulfonamide]?
**A.** pIC50 [1]: 5.89; pIC50 [2]: 7.96; pIC50 [3]: 6.20
